What was measured:
EAE = settings: cited: Inaba et al. 1999; Inoue et al. 1996; cited from earlier work
EAE in SJL (H-2s) mice = assay: EAE induced with PLP139-151 in SJL mice, daily i.p. treatment with H1R or PAFR antagonist; assay type: in vivo; settings: day 13, daily i.p. from day 2 after induction, pyrilamine 0.6 mg/mouse, CV6209 1 μg/mouse, vehicle group 3±0.52
Experimental: Modulation of EAE with H1R antagonist and PAFR antagonist. EAE was induced in SJL/J mice with PLP139-151. The H1R antagonist pyrilamine (0.6 mg/mouse; n=8), PAFR antagonist CV6209 (1 μg/mouse; n=8), or vehicle alone (PBS; n=7) were given daily i.p. starting on day 2 after the induction of EAE.
Mice were assessed daily for clinical signs of EAE (see id.). For each mouse, a remission was defined as decrease of the score of at least one point for at least 2 consecutive days. […] In the pharmacological studies, the histamine receptor 1 antagonist, pyrilamine (Sigma, St Louis, Mo.) and the PAF antagonist, CV6209 (Biomol, Plymouth Meeting, Pa.) were injected daily i.p. in PBS starting 2 days after the induction of EAE.
We targeted pharmacologically PAF and histamine, the main vasoactive mediators of murine anaphylaxis, and evaluated the development of EAE. EAE was induced in SJL (H-2s) mice with PLP139-151 and on the second day after the induction of the disease we started a daily i.p. treatment with the PAFR antagonist CV 6209, or with the H1R antagonist pyrilamine.

Row | Compound | effect on EAE (EAE) | mean EAE score (EAE in SJL (H-2s) mice)
1 | dermatan sulfate | ameliorate EAE | 
2 | batroxobin | ameliorate EAE | 
3 | CCCCCCCCCCCCCCCCCCNC(=O)OCC(COC(=O)N(Cc1cccc[n+]1CC)C(C)=O)OC (stereo not shown) [CV 6209] |  | 0.71±0.36
4 | COc1ccc(CN(CCN(C)C)c2ccccn2)cc1 [pyrilamine] |  | 0.57±0.2
